The text below walks through data of paper PMC2915928 (Bioorganic & medicinal chemistry, 2009).

Where two headings read alike, the source gives them in different places.

The Emax is the maximal effect, on the per cent scale that the assay sets.

The conditions of series [1]: human liver microsomes. For orientation: Microsomes from liver hold many membrane-bound enzymes, among them those of drug oxidation.
The target in series [2] is T1, nociceptin (NOP) receptor (Homo sapiens, UniProt P41146). As to the kind of experiment: biochemical. Particulars: read-out: NOP Emax, stimulation of [35S]GTPγS binding.
T1 sequence (P41146 whole entry): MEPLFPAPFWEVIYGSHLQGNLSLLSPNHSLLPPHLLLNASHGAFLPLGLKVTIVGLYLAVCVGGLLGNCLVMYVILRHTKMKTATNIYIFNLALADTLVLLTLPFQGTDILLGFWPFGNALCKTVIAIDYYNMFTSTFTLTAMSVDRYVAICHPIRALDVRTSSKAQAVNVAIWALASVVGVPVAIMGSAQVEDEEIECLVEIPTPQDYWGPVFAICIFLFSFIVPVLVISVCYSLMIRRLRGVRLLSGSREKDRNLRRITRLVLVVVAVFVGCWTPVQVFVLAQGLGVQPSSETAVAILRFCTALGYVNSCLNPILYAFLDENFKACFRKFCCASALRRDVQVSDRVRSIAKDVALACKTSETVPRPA
The target of series [3] is T1, nociceptin (NOP) receptor. Put plainly: Inhibition of basal [35S]GTPγS binding. Particulars: read-out: NOP Emax, inhibition of basal [35S]GTPγS binding. It counts as biochemical. A general note: GTPγS resists hydrolysis and so accumulates on activated G proteins.
Series [4] concerns the target T2, μ-opioid receptor (Mus musculus, UniProt P42866).
In series [5] the target is T2, μ-opioid receptor. As to the kind of experiment: biochemical. Particulars: read-out: μ Emax, stimulation of [35S]GTPγS binding.
Series [6] concerns the target T2, μ-opioid receptor. As to the kind of experiment: biochemical. Particulars: read-out: μ Emax, inhibition of basal [35S]GTPγS binding.

T2 sequence (P42866 whole entry): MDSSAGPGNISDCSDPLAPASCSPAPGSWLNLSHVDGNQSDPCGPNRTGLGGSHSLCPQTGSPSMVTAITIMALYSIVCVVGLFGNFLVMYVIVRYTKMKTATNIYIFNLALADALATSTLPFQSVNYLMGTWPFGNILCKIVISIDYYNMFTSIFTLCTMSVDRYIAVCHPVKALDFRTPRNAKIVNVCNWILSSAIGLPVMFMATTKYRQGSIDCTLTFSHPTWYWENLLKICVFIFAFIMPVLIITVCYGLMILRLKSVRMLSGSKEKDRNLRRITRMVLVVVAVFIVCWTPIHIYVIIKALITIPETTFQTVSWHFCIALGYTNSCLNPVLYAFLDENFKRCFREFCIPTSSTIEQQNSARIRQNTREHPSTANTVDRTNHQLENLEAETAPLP

Regarding `O=C(N[C@@H]1CC[C@@]2(O)[C@H]3Cc4ccc(O)c5c4[C@@]2(CCN3CC2CC2)[C@H]1O5)c1ccc(Br)cc1.O=C(O)C(=O)O` [Compound 6, 17-Cyclopropylmethyl-3,14β-dihydroxy-4,5α-epoxy-6β-[(4′-bromo)benzamido] morphinan], the “Change of N-oxide formation rate upon going from pH 7.4 to pH 10” value in series [1] is “doubled”.
For the compound `O=C(N[C@@H]1CC[C@@]2(O)[C@H]3Cc4ccc(O)c5c4[C@@]2(CCN3CC2CC2)[C@H]1O5)c1ccc(Cl)c(Cl)c1.O=C(O)C(=O)O` [Compound 9], the Emax was 0% in series [2], 87 ± 6.9% in series [3], 80 to 85% in series [5] and 0% in series [6]. Further, in series [4], the “μ Emax, stimulation of [35S]GTPγS binding” value was found to be 85 ± 7.4%.
